PubChem BioAssay AID2305 (GlaxoSmithKline (GSK), 2010)

Tested on: P. falciparum 3D7 growth, pLDH absorbance
Test: blood-stage malaria parasite growth potency – strain 3D7, dose response (AID 2305)

| Structure (SMILES) | IC50 |
| --- | --- |
| Cc1sc2nc(CN3CCCC3)nc(-n3c(NCCO)nc4ccccc43)c2c1C | 1240 nM |
| O=C(/C=C/c1ccc(Cl)c(Cl)c1)NCC(CCCN1CCC(c2c[nH]c3ccccc23)CC1)c1ccccc1 (configuration not stated) | 810 nM |
| O=C(Nc1ccc(N2CCN(c3ncccc3C(F)(F)F)CC2)nc1)c1cccs1 | 1190 nM |
| Cc1cc(C)c2c(c1)C(=NO)CCN2 | 940 nM |
| CCCc1cnc2nc(N)nc(N)c2c1C | 1120 nM |
| CS(=O)(=O)Nc1ccc2[nH]cc(C3CCN(CC4CCC(NC(=O)/C=C/c5ccc(Cl)c(Cl)c5)CC4)CC3)c2n1 (configuration not stated) | 780 nM |
| Cc1[nH]c(C)c(-c2ccc(-c3ccc(Cl)cc3)nc2)c(=O)c1Cl | 110 nM |
| COc1cccc(CN2CCCC(CCC(=O)Nc3ccc(C(F)(F)F)cc3)C2)c1O (configuration not stated) | 750 nM |
| Cc1cccc(CN2CCCN(Cc3ccc(C(=O)Nc4ccc(C)c(F)c4)cc3)CC2)c1 | 1060 nM |
| CCN(CC)CCN(Cc1ccc(-c2ccc(Cl)cc2)cc1)C(=O)Cn1c(CCc2cccc(F)c2F)nc(=O)c2ccccc21 | 770 nM |
| O=C(Nc1cc(Cl)cc(Cl)c1)N[C@H]1CCN(CCCCCNC(=O)[C@@H]2C[C@H]2c2ccc(Cl)c(Cl)c2)C1 | 860 nM |
| N#Cc1cccc(NC(=O)Nc2cccc(OC3CCN(Cc4ccccc4)CC3)c2)c1 | 840 nM |
| Cc1cccc2[nH]c(-c3cccc(-c4cccc(CNCCc5ccncc5)c4)c3)nc12 | 140 nM |
| Cc1noc(-c2cccs2)c1C(=O)NC(C)c1cccc2ccccc12 (configuration not stated) | 130 nM |
| CCc1c(C)nc(-n2nc(C)cc2NC(=O)CC(c2ccccc2)c2ccccc2)[nH]c1=O | 650 nM |
| Cc1noc(C)c1-c1ccc2c(Nc3ccccc3C(C)(C)C)c(C(=O)NCc3ccccc3)cnc2c1 | 760 nM |
| COc1ccc(-c2cnc3ccc(NCc4ccc(S(N)(=O)=O)cc4)nn23)cn1 | 870 nM |
| CC(Cc1ccc(NS(=O)(=O)c2ccc(CC(C)NCCc3cccc(Cl)c3)cc2)cc1)NCCc1cccc(Cl)c1 (configuration not stated) | 780 nM |
| COc1ccccc1CCNC(=O)c1cc(Br)cc(N2CCN(c3ccncc3)CC2)c1 | 1270 nM |

| Structure (SMILES) | IC50 |
| --- | --- |
| COc1ccc2nccc([C@@H](O)CN3CCC(NC(=O)c4ccc(OC)c(N)c4)CC3)c2c1 | 710 nM |
| Nc1ncc(-c2ccc(F)cc2)c2ccc(-c3cccc(F)c3)cc12 | 230 nM |
| N#Cc1cccc(Nc2nccc(NCC(O)c3ccccc3C(F)(F)F)n2)c1 (configuration not stated) | 830 nM |
| CC(C)(C)c1ccc2nccc(Nc3cccc(O)c3)c2c1 | 970 nM |
| COc1ccc(CNC(=O)c2cnc3c(O)cccc3c2Nc2cccc(NC(=O)c3ccc(F)cc3)c2)cc1 | 1000 nM |
| COc1ccc(-c2cc3ncn(CC(=O)N4CCN(c5cccc(OC)c5)CC4)c(=O)c3s2)cc1 | 1060 nM |
| CCC(=O)Nc1cc(=O)[nH]c2nc(-c3ccc(Cl)cc3)nn12 | 570 nM |
| O=C(NCc1cccc(C(F)(F)F)c1)c1ccc(CNC(=O)c2ccc(O)c(-c3ccc(Cl)c(Cl)c3)c2)cc1 | 840 nM |
| COc1cc(Cc2cnc(N)nc2N)cc(OCCCCNS(=O)(=O)C(F)(F)F)c1OC | 1040 nM |
| COc1ccc2c(c1)Sc1ccccc1C(N1CCN(CCO)CC1)C2 (configuration not stated) | 1390 nM |
| CC[C@H](C)CNC(=O)c1cncc(-c2cccc(CNC3Cc4ccccc4C3)c2)c1 | 590 nM |
| O=C(CCCCCNC(=O)c1ccc(O)c(-c2ccc(Cl)c(Cl)c2)c1)NCCc1ccc(Cl)c(Cl)c1 | 760 nM |
| FC(F)(F)c1ccc2nc(-c3ccc(-c4cccc(CN5CCC(CCN6CCCCC6)CC5)c4)cc3)[nH]c2c1 | 150 nM |
| CCc1c(CCNCCCCCCNCCc2ccc(OC)c(OC)c2C)ccc(OC)c1OC | 1570 nM |
| C=C[C@]1(C)C[C@@H](OC(=O)NC(=O)C2CCN(C(=O)CSc3ccccc3)CC2)[C@]2(C)[C@H](C)CC[C@]3(CCC(=O)[C@H]32)[C@@H](C)[C@@H]1O | 1010 nM |
| O=C(/C=C/c1ccc(Cl)cc1)Nc1ccc2nc(CN3CCCC3)ccc2c1 | 80 nM |
| Cc1nc(-c2ccc(-c3ccc(C(=O)Nc4ccc(I)c(OCCN5CCCC5)c4)cc3)c(C)c2)no1 | 960 nM |
| CN1CCC(C(=O)Nc2ccc(-c3cccc(-c4nc5ccc(C(F)(F)F)cc5[nH]4)c3)cc2)CC1 | 580 nM |
